Patent US5587360A, “Platelet adhesion inhibitor” (Merck Patent GmbH, priority 1990, dated 1996)
Read-outs that look alike come from different tables or passages of the source.

B1: SBTI: soybean trypsin inhibitor (protein, UniProt P01070 25-205, looked up)
Trypsin inhibitor A: DFVLDNEGNPLENGGTYYILSDITAFGGIRAAPTGNERCPLTVVQSRNELDKGIGTIISSPYRIRFIAEGHPLSLKFDSFAVIMLCVGIPTEWSVVEDLPEGPAVKIGENKDAMDGWFRLERVSDDEFNNYKLVFCPQQAEDDKCGDIGISIDHDDGTRRLVVSKNKPLVVQFQKLDKESL

Tested on: leech-derived protein according to the invention
Assay: Effect of typical inhibitors on the activity of the protein
Type: biochemical, Hirudo medicinalis
Conditions: for IC50: read-out: IC50 (mM), dose of inhibitor which gave half maximal inhibition
Experimental: Any hydrolysis of the chromogenic substrates. S2251, S2586, S2288. […] A preferred assay method is described below. Preparations for assay are reconstituated or diluted in assay buffer: 50 mM Tris, 0.2M NaCl, 0.05% casein (Hammerstan grade from British Drug Houses), 0.1% Brij 35, 0.01% sodium azide, pH8.0. Activity is det.ermined using modification of the AZOCCLL assay adapted to microtitre plates. Aliquots (100 microliters) of protein. in a range of dilutions in assay buffer, are incubated with a suspension of washed substrate (100 microliters: 10mg/ml) at 37 degrees Celsius. At the end of the incubation period which varies according to the experiment and dose of protein, the undigested substrate is sedimented by centrifugation and aliquots (100 microliters) of the supernatants transferred to another plate in which the absorbance at 560 nm is measured. Protein activity can be expressed as milliequivalent units of bacterial collagenase (Clostridium histolyticum) assayed at the same time under the same conditions.
The effect of some typical inhibitors was examined. The protein (5000 units/ml of a preparation of specific activity 10,000-20,000 units/mg) was incubated with DTT, cysteine, EDTA and leech anti-chymotrypsin in a range of concentrations with substrate. […] The effects of orthophenanthroline (2 mM): TIMP (tissue inhibitor of metallo-proteinase) 0.4 micrograms with APMA (0.5 mM) and with pre-incubation for 15 min): SBTI (7.5 micrograms and 30 min pre-incubation): and PMSF ([…] with 30 min pre-incubation) were also studied.

[1] = protein 5000 units/ml, o-phenanthroline 2 mM, TIMP 0.4 micrograms, SBTI 7.5 micrograms, PMSF single dose only

Molecule	effect of inhibitor on activity of the protein (protein 5000 units/ml)	IC50 [1] [mM]	effect of inhibitor on activity of the protein	IC50 [mM]	IC50 (mM), dose of inhibitor which gave half maximal inhibition [1]
O[C@H](CS)[C@H](O)CS (racemic) [Dithiothreitol]	destroyed activity	0.2	–	–	–
N[C@@H](CS)C(=O)O [Cysteine]	destroyed activity	3	–	–	–
O=C(O)CN(CCN(CC(=O)O)CC(=O)O)CC(=O)O [EDTA]	–	–	destroyed activity	2	–
O=S(=O)(F)Cc1ccccc1 [PMSF]	did not inhibit activity	–	–	–	No effect
c1cnc2c(c1)ccc1cccnc12 [o-Phenanthroline]	did not inhibit activity	–	–	–	No effect
[N-]=[N+]=[N-] [sodium azide]	did not inhibit activity	–	–	–	–
B1	did not inhibit activity	–	–	–	No effect
